Reference: US20150017156A1, “ESX-MEDIATED TRANSCRIPTION MODULATORS AND RELATED METHODS” (THE OHIO STATE UNIVERSITY, priority 2011, published 2015)
Read-outs that look alike come from different tables or passages of the source.

Columns and labels:
[1] = tested on: Her2 expression in SKBR3 cells; details: cited from earlier work
[2] = tested on: SKBR3 Her2-positive breast carcinoma cells; details: cited from earlier work
CAL27 HNSCC cells = test: Xenograft model of HNSCC, CAL27 in athymic nude mice
CAL27 cells [3] = test: Cell proliferation (CCK-8 reagent), CAL27; format: cell-based; details: Homo sapiens, read-out: IC50 for cell proliferation
Description: (§1) A. EGFR and Her2 levels. […] Cell lysates were prepared and determined for EGFR and Her2 protein levels by immunoblot analyses. B. Cell proliferation. […] (ESXm) for 24 hours. Cell proliferation was assessed using the CCK-8 reagent to detect metabolic active cells. Dose-response curves and IC50 values were generated using GraphPad Prism 4.0 (GraphPad Software, La Jolla, Calif.). […] C. Cell invasion. Cell invasion was determined as described from the cell invasion assay kit (Chemicon International, Temecula, Calif.). […] An aliquot (1×10^5 cells) of the prepared cell suspension was added to the top chamber and 10% FBS was added to the bottom chamber. After 24 hours, non-invading cells were gently removed from the interior of the inserts with a cotton-tipped swab. Invasive cells were stained and visualized. A representative field for each experimental condition is presented. D. Cell migration. Cell migration was determined using the wound healing assay. Cells were seeded and allowed to grow until confluence. […] A representative field for each experimental condition at 0 hour and 24 hours is presented.
(§2) Cell proliferation was assessed using the CCK-8 reagent to detect metabolic active cells. Dose-response curves and IC50 values were generated using GraphPad Prism 4.0 (GraphPad Software, La Jolla, Calif.).

SCC25 cells [4] = test: Cell proliferation (CCK-8 reagent), SCC25; format: cell-based; details: Homo sapiens, read-out: IC50 for cell proliferation
Description: as §1, §2

CAL27 cells [5] = details: 12.5 μmol/L
Description: (§3) A. EGFR and Her2 levels. […] Cell lysates were prepared and determined for EGFR and Her2 protein levels by immunoblot analyses. B. Cell proliferation. […] Cell proliferation was assessed using the CCK-8 reagent to detect metabolic active cells. Dose-response curves and IC50 values were generated using GraphPad Prism 4.0 (GraphPad Software, La Jolla, Calif.). […] C. Cell invasion. Cell invasion was determined as described from the cell invasion assay kit (Chemicon International, Temecula, Calif.). […] An aliquot (1×10^5 cells) of the prepared cell suspension was added to the top chamber and 10% FBS was added to the bottom chamber. After 24 hours, non-invading cells were gently removed from the interior of the inserts with a cotton-tipped swab. Invasive cells were stained and visualized. A representative field for each experimental condition is presented. D. Cell migration. Cell migration was determined using the wound healing assay. Cells were seeded and allowed to grow until confluence. […] A representative field for each experimental condition at 0 hour and 24 hours is presented.

[6] = tested on: EGFR and Her2 levels in CAL27 cells; details: 24 hours, immunoblot
Description: as §3

[7] = tested on: EGFR and Her2 levels in SCC25 cells; details: 24 hours, immunoblot
Description: as §3

SCC25 cells [8] = details: 15 μmol/L
Description: as §3

[9] = Precipitation in cell culture media; format: physicochemical; details: higher concentrations
[10] = tested on: phosphorylated erbB2 levels in SkBr3 cells
Description: ErbB2 and p-erbB2 ELISA: ELISA assays were performed based on those published elsewhere.[4] […] After 24 hours, media was removed carefully and cells were fixed and permeabilized with cold (−20° C.) methanol. The cells were then washed twice with TBST, blocked for 2 hours at room temperature with superblock (TBST solution from Pierce), incubated with the primary antibody overnight at 4° C. (as a 1:500 solution in superblock). Cells were then washed twice more with TBST and incubate with secondary antibody for 2 hours at room temperature (as a 1:1000 solution in superblock). After being washed 3 times with TBST, Slow TMB (Pierce) was added to measure antibody levels in accordance with the manufacturer's instructions and the absorbance at 370 nm was measured. The cells were washed 3 more times with TBST and total protein levels were measured at 560 nm using BCA reagent (Pierce). […] The resulting ratios were then normalized to cells treated with DMSO.

Description for SkBr3 (erbB2+) cells: Isobolograms were generated by computing dose fractions directly from the IC50s. Dose fraction is defined as the dose of one component in a combination required to exert a given effect (usually IC50, as in this case) divided by the dose of that component in isolation required to exert the same effect. Thus each combination reported has two dose fraction measurements (eg. dose fraction it and dose fraction lapatinib) that define the combinations x/y coordinates on the isobologram.
Dose fraction of A for combination AB=IC50(A in AB)/IC50(A in isolation)
Dose fraction of B for combination AB=IC50(B in AB)/IC50(B in isolation)
The sum of these x/y coordinates are the combination index. By definition, the CI for either agent in isolation is 1. For the null hypothesis (in which both agents act as though they are equivalent doses of the same agent) the CI will be 1. For combinations where the CI<1, synergy is present.
CI(combination index)=dose fraction A+dose fraction B.
For the experiments used to generate dose-effect curves for the isobolograms and selectivity experiments, cells were plated at 3000 cells per well in 96 well plates. […] The day after the final treatment, cell viability was measured using WST-1 reagent (Roche) in accordance with the manufacturer's instructions. […]

In the case of `Cc1ccc(S(=O)(=O)n2ccc3c(OCC(O)CN(CCCCCN)C(=O)N4CCC(C5CCN(C(=O)C67CC8CC(CC(C8)C6)C7)CC5)CC4)cccc32)cc1` (stereo not shown) [Wrenchnolol, wrenchnolol, reference compound], the Her2 expression [1] is given as “decreased Her2 expression” and the cell proliferation [2] is given as “inhibited cell proliferation”.

In the case of `CN(C)C/C=C/C(=O)Nc1cc2c(Nc3ccc(F)c(Cl)c3)ncnc2cc1O[C@H]1CCOC1` [afatinib], the mean tumor volume (CAL27 HNSCC cells) is reported as 43 mm^3 and the “mean tumor volume, single-agent afatinib arm compared to the combination treatment arm” value (CAL27 HNSCC cells) is reported as 2.1 fold.

In the case of `CC(C)C[C@]1(CCO)C[C@H](CN=[N+]=[N-])ON1Cc1ccc(-c2ccccc2)cc1` [biphenyl isoxazolidine], the IC50 (CAL27 cells [3]; CAL-27, 24 h) is reported as 46.8 µM, the IC50 (SCC25 cells [4]; SCC-25, 24 h) is reported as 50.3 µM and the Cell invasion (CAL27 cells [5]) is reported as “dramatically suppressed”. For the same compound, the Cell migration (CAL27 cells [5]) was “dramatically suppressed”, the “EGFR and Her2 levels” value [6] was “dose-dependent decrease” and the “EGFR and Her2 levels” value [7] was “dose-dependent decrease”. For the same compound, the Cell invasion (SCC25 cells [8]) was “dramatically suppressed”, the Cell migration (SCC25 cells [8]) was “dramatically suppressed” and the Her2 expression [1] was “decreased Her2 expression”. For the same compound, the cell proliferation [2] was “inhibited cell proliferation”.

In the case of `C#Cc1cccc(Nc2ncnc3cc(OCCOC)c(OCCOC)cc23)c1` [erlotinib], the “precipitation out of cell culture media” value [9] is reported as “precipitate out of cell culture media at higher concentrations”.

With `CS(=O)(=O)CCNCc1ccc(-c2ccc3ncnc(Nc4ccc(OCc5cccc(F)c5)c(Cl)c4)c3c2)o1` [lapatinib, reference compound] the IC50 (CAL27 cells [3]; CAL-27, CAL27 cells, 24 hours of treatment, single agent) was 11.8 µM, the IC50 (SCC25 cells [4]; SCC-25, SCC25 cells, 24 hours of treatment, single agent) was 11.9 µM and the IC50 (SkBr3 (erbB2+) cells) was 0.048 ± 0.017 µM. For the same compound, the “effects on erbB2 and phosphorylated erbB2 levels as single agents” value [10] was “moderate effects”.
